From article PMC12811996, “Exploration and Characterization of the Antimalarial Activity of Pyrimidine‐2,4‐Diamines for which Resistance is Mediated by the ABCI3 Transporter” (Chemmedchem, 2025) come the findings set out here.

In brackets after ≈: the same amount, converted by molar mass. Like-named read-outs stand apart in the source and are kept apart here.

Data set [1] in a line: physchem. Type of data set: physicochemical. As to conditions: kinetic in PBS, pH 7.4. On the procedure: (§1) The aqueous solubility and in vitro metabolic stability of selected analogs were assessed to determine if they had favorable parameters (Table 9 ).These analogs were selected based on their potency and the modifications that were incorporated, which led to compounds 55 and 56. […] The high lipophilicity of analogs 1, 11, and 16 was not favorable for metabolic stability.
(§2) This was performed as previously described.^[ [14] ^, [16] ^]

Data set [2] in a line: physchem. Particulars: shake-flask method; for logD: read-out: eLogD. Type of data set: physicochemical. On the procedure: as §2
Data set [3] is described as follows: in vitro. Type of data set: in vitro ADME. As to conditions: for microsomal CLint: human, microsomes, human liver microsomes; for hepatocyte CLint: rat hepatocytes. On the procedure: as §1, §2
For orientation: Liver microsomes are a subcellular fraction often used to study metabolism.

For data set [4], the target named is Albumax (Bos taurus, UniProt P02769). Put plainly: in vitro. Type of data set: in vitro ADME. As to conditions: for fraction unbound: bovine, isolated protein, read-out: Albumax binding % bound (converted).
For data set [5], the system named is P. falciparum 3D7 parasites. Put plainly: P. falciparum 3D7 asexual stage parasite LDH assay, 72 h. Type of data set: cell-based, Plasmodium falciparum. As to conditions: for fold reduction in antiplasmodial activity compared to W482 (1): ratio of 3D7 EC50 values; for EC50: Plasmodium falciparum, 3D7, 72 h, P. falciparum 3D7, LDH activity, 72 h exposure, means and SDs, 3 or more experiments, read-out: Pf parasite EC50 (SD). On the procedure: To establish the SAR, the antiparasitic activity of the analogs was determined using an assay that measures the lactate dehydrogenase (LDH) activity of asexual P. falciparum 3D7 parasites after 72 h of compound treatment. Mammalian cytotoxicity was monitored using an assay that measures the growth of HepG2 cells using Cell Titer‐Glo after 48 h of compound treatment.
This was performed as previously described, whereby lactate dehydrogenase (LDH) was used as a metabolic marker for parasite growth after a 72‐h incubation period.^[ [14] ^, [30] ^]

The test system of data set [6] is PfABCI3-HAreg parasites. Kind of data set: Parasite proliferation assay with PfABCI3-HAreg parasites (SYBR Safe, 72 h). Type of data set: cell-based, Plasmodium falciparum. Particulars: mean ± SEM, n = 4; for IC50: Plasmodium falciparum, 72 h. On the procedure: Glucosamine (GlcN) (5 mM) was used to reduce the level of pfabci3‐ha. Chloroquine and MMV020746 were used as negative and positive controls, respectively.
Figure 4 Sensitivity of PfABCI3‐HAreg parasites to growth inhibition by chloroquine (a), MMV020746 (b), and W482 (1) (c). Data for parasites in which pfabci3‐ha mRNA was reduced (+ GlcN) are shown in red. GlcN (5 mM) was added to the parasites 48 h prior to the assay and maintained throughout the 72 h assay. The data for parasites expressing a normal level of PfABCI3‐HA (‐GlcN) are shown in black. The data in all panels are from four independent experiments performed on different days. […] Parasites that were treated with or without GlcN (5 mM) were tested concurrently in each assay. TEXT PRINTED IN THE PICTURE: chloroquine: IC50 ± SEM (nM) - GlcN: 12.6 ± 1.1; IC50 ± SEM (nM) + GlcN: 11.9 ± 1.5 | MMV020746: IC50 ± SEM (nM) - GlcN: 104 ± 13; IC50 ± SEM (nM) + GlcN: 32.9 ± 3.9 | W482 (1): IC50 ± SEM (nM) - GlcN: 312 ± 28; IC50 ± SEM (nM) + GlcN: 153 ± 12
Parasite proliferation assays were performed with PfABCI3‐HAreg parasites^[ [19] ^] according to a previously described method, with the fluorescent nucleic acid intercalating dye SYBR Safe used to measure parasite viability.^[ [32] ^, [33] ^] The assays were commenced with cultures consisting of predominantly ring‐stage parasites with a starting hematocrit of 1% and parasitemia of 1%. […] It was shown previously that there is a reduction in pfabci3‐ha mRNA in PfABCI3‐HAreg exposed to 5 mM GlcN and a decrease in parasite viability over time.^[ [19] ^] The level of knockdown of the protein is not known.

Setting [7] is: read-out: Aqueous solubility pH 7.4.
The mark [8] stands for this setting: aqueous buffer, kinetic from dmso stock.

Albumax, sequence (P02769 25-607): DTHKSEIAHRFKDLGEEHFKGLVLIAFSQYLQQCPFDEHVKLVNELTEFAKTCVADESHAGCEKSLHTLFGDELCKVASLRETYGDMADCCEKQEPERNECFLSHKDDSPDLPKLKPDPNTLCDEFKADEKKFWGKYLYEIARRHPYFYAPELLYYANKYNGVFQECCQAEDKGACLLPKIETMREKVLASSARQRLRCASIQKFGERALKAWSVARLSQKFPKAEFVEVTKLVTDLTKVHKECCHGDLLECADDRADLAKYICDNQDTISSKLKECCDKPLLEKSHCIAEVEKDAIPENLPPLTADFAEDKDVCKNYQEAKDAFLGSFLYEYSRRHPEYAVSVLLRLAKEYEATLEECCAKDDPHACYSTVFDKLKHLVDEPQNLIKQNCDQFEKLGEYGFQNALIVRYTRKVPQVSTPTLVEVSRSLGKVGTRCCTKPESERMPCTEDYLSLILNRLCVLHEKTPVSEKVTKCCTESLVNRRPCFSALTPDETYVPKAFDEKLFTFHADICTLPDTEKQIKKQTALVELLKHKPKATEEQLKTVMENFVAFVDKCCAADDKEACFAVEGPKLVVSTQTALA

The term solubility denotes the dissolved amount per volume that the medium holds. Regarding “3‐Cyclohexyl‐N‐(4‐((4‐(dimethylamino)quinazolin‐2‐yl)amino)phenyl)propenamide [Compound 16]”, in data set [1] (setting [7]), the solubility was 2.5 µM. Also, the eLogD in data set [2] is 4.6–5.0. Further, in data set [3], the “Human liver microsomes CLint” value worked out at 166 µL/min/mg and the “Rat hepatocytes CLint” value is over 92 µL/min/10^6 cells. In addition, the “Albumax binding % bound” value in data set [4] is given as 96.6%. As to “3‐Cyclohexyl‐N‐(4‐((4‐methyl‐6‐(4‐methylpiperazin‐1‐yl)pyrimidin‐2‐yl)amino)phenyl)propenamide [Compound 11]”, the solubility in data set [1] (setting [7]) came to 2.6 µM. Besides, in data set [2], the eLogD is 4.6–5.0. Also, in data set [3], the “Rat hepatocytes CLint” value is reported as over 92 µL/min/10^6 cells. For the same compound, the “Albumax binding % bound” value in data set [4] amounted to 99.9%. In the case of “3‐Cyclohexyl‐N‐(4‐((4‐methyl‐6‐morpholinopyrimidin‐2‐yl)amino)phenyl)propenamide [Compound 9]”, the “fold reduction in antiplasmodial activity compared to W482 (1)” value (“fold reduction” for short) in data set [5] amounted to 4 fold. “3‐Cyclohexyl‐N‐(6‐((4‐(dimethylamino)‐6‐methylpyrimidin‐2‐yl)amino)pyridin‐3‐yl)propenamide [Compound 25]”: the “fold reduction” value in data set [5] was found to be 8 fold. Usually EC50 stands for the concentration needed to bring the measured effect to its halfway point. For the compound `Cc1cc(N(C)Cc2ccccc2)nc(Nc2ccc(NC(=O)CCC3CCCCC3)cc2)n1` [Compound 6, N‐(4‐((4‐(Benzyl(methyl)amino)‐6‐methylpyrimidin‐2‐yl)amino)phenyl)‐3‐cyclohexylpropanamide], the EC50 in data set [5] amounted to 600 nM.

As to `Cc1cc(Nc2ccc(NC(=O)CCC3CCCCC3)cc2)nc(N(C)C)c1` [Compound 19, 3‐Cyclohexyl‐N‐(4‐((6‐(dimethylamino)‐4‐methylpyridin‐2‐yl)amino)phenyl)propanamide], the EC50 in data set [5] was 610 nM.

On to `Cc1cc(N(C)C)cc(Nc2ccc(NC(=O)CCC3CCCCC3)cc2)n1` [Compound 20, 3‐Cyclohexyl‐N‐(4‐((4‐(dimethylamino)‐6‐methylpyridin‐2‐yl)amino)phenyl)propanamide], for which the EC50 in data set [5] worked out at 880 nM. On to `CN(C)c1nc(Nc2ccc(NC(=O)CCC3CCCCC3)cc2)cc2ccccc12` [Compound 21, 3‐Cyclohexyl‐N‐(4‐((1‐(dimethylamino)isoquinolin‐3‐yl)amino)phenyl)propanamide], for which, in data set [5], the EC50 is over 10000 nM. With `Cc1cc(N(C)C)nc(Nc2ccc(NC(=O)c3cccs3)cc2)n1` [Compound 27], in data set [5], the EC50 was 1440 nM.

Consider `Cc1cc(N(C)C)nc(Nc2ccc(NC(=O)c3ccco3)cc2)n1` [Compound 28], for which, in data set [5], the EC50 turned out to be 3900 nM. In the case of `Cc1cc(N(C)C)nc(Nc2ccc(NC(=O)c3ccc4ccccc4c3)cc2)n1` [Compound 29], the EC50 in data set [5] came to 360 nM. As for `Cc1cc(N(C)C)nc(Nc2ccc(NC(=O)C(C)C)cc2)n1` [Compound 30], in data set [5], the EC50 worked out at 3760 nM. Still for that read-out and setting: with `Cc1cc(N(C)C)nc(Nc2ccc(NC(=O)C(C)(C)C)cc2)n1` [Compound 31] the figure was 3360 nM; with `Cc1cc(N(C)C)nc(Nc2ccc(NC(=O)CC(C)C)cc2)n1` [Compound 32], 1630 nM; with `Cc1cc(N(C)C)nc(Nc2ccc(NC(=O)C3CCCCC3)cc2)n1` [Compound 33], 930 nM. `Cc1cc(N(C)C)nc(Nc2ccc(NC(=O)CCC3CCCC3)cc2)n1` [Compound 34]: in data set [5], the EC50 was found to be 1000 nM and the “fold reduction” value worked out at 2 fold. Turning to `Cc1cc(N(C)C)nc(Nc2ccc(NC(=O)c3ccccc3Cl)cc2)n1` [Compound 35], the EC50 in data set [5] is 2120 nM. Same read-out and setting: with `Cc1cc(N(C)C)nc(Nc2ccc(NC(=O)c3ccccc3Br)cc2)n1` [Compound 36] the figure was 1850 nM. Take `Cc1cc(N(C)C)nc(Nc2ccc(NC(=O)c3ccccc3C(F)(F)F)cc2)n1` [Compound 37]: in data set [5], the EC50 was found to be 850 nM and the “fold reduction” value is listed as 2 fold. For the compound `Cc1cc(N(C)C)nc(Nc2ccc(NC(=O)c3cccc(F)c3)cc2)n1` [Compound 38], in data set [5], the EC50 was determined as 780 nM and the “fold reduction” value came out at 2 fold.

On to `Cc1cc(N(C)C)nc(Nc2ccc(NC(=O)c3cccc(Br)c3)cc2)n1` [Compound 39], for which the EC50 in data set [5] stood at 450 nM. Turning to `Cc1cccc(C(=O)Nc2ccc(Nc3nc(C)cc(N(C)C)n3)cc2)c1` [Compound 40], in data set [5], the EC50 was found to be 1080 nM and the “fold reduction” value came to 2 fold. As to `Cc1cc(C)cc(C(=O)Nc2ccc(Nc3nc(C)cc(N(C)C)n3)cc2)c1` [Compound 41], the EC50 in data set [5] was 590 nM. Take `Cc1cc(N(C)C)nc(Nc2ccc(NC(=O)c3ccc(C)c(C)c3)cc2)n1` [Compound 42]: the EC50 in data set [5] was found to be 660 nM.

As for `COc1cc(OC)cc(C(=O)Nc2ccc(Nc3nc(C)cc(N(C)C)n3)cc2)c1` [Compound 43], in data set [5], the EC50 turned out to be 640 nM. For `COc1ccc(Cl)cc1C(=O)Nc1ccc(Nc2nc(C)cc(N(C)C)n2)cc1` [Compound 44], in data set [5], the EC50 is 490 nM. Turning to `Cc1cc(N(C)C)nc(Nc2ccc(NC(=O)Nc3ccccc3F)cc2)n1` [Compound 45], the EC50 in data set [5] was 3420 nM. Same read-out and setting: with `Cc1cc(N(C)C)nc(Nc2ccc(NC(=O)Nc3ccccc3Cl)cc2)n1` [Compound 46] the figure was over 10000 nM; with `Cc1cc(N(C)C)nc(Nc2ccc(NC(=O)Nc3ccccc3C)cc2)n1` [Compound 47], 410 nM. On to `COc1ccccc1NC(=O)Nc1ccc(Nc2nc(C)cc(N(C)C)n2)cc1` [Compound 48], for which the EC50 in data set [5] turned out to be 380 nM. Consider `Cc1cc(N(C)C)nc(Nc2ccc(NC(=O)Nc3cccc(Cl)c3)cc2)n1` [Compound 49], for which, in data set [5], the concentration for a half-maximal effect (EC50) amounted to 240 nM. On the same count and under the same terms, with `Cc1cccc(NC(=O)Nc2ccc(Nc3nc(C)cc(N(C)C)n3)cc2)c1` [Compound 50] the figure was 240 nM. Usually microsomal CLint stands for the rate of metabolic loss divided by the concentration. Usually hepatocyte CLint stands for the rate of metabolic loss divided by the concentration. `Cc1cc(N(C)C)nc(Nc2ccc(NC(=O)Nc3ccc(F)cc3)cc2)n1` [Compound 51] registered a solubility in data set [1] (setting [8]) of 3.7 µM (≈ 1.41 µg/mL). Also, the logD in data set [2] stood at 3. In data set [3], this compound displayed a microsomal CLint of 26 µL/min/mg and a hepatocyte CLint of 32 µL/min/1e6 cells. The EC50 in data set [5] is 300 nM. Moreover, in data set [4], the fraction unbound was 0.016.

On to `Cc1cc(N(C)C)nc(Nc2ccc(NC(=O)Nc3ccc(Cl)cc3)cc2)n1` [Compound 52], for which the EC50 in data set [5] is 340 nM. On to `Cc1ccc(NC(=O)Nc2ccc(Nc3nc(C)cc(N(C)C)n3)cc2)cc1` [Compound 53], for which, in data set [5], the EC50 was 440 nM. As to `COc1ccc(NC(=O)Nc2ccc(Nc3nc(C)cc(N(C)C)n3)cc2)cc1` [Compound 54], the EC50 in data set [5] was determined as 400 nM.

`O=C(CCC1CCCCC1)Nc1ccc(Nc2nc(N3CCNCC3)c3ccccc3n2)cc1` [Compound 55, 3‐Cyclohexyl‐N‐(4‐((4‐(piperazin‐1‐yl)quinazolin‐2‐yl)amino)phenyl)propanamide] yielded a solubility in data set [1] (setting [8]) of 2.5 µM (≈ 1.15 µg/mL). Besides, the logD in data set [2] was determined as 3.2. For the same compound, in data set [3], the “Human liver microsomes CLint” value is on record as 117 µL/min/mg, the intrinsic clearance (microsomal CLint) was over 117 µL/min/mg and the hepatocyte CLint is 27 µL/min/1e6 cells. Moreover, the EC50 in data set [5] was 230 nM. Moreover, the fraction unbound in data set [4] is 0.002. As for `O=C(Nc1ccc(F)cc1)Nc1ccc(Nc2nc(N3CCNCC3)c3ccccc3n2)cc1` [Compound 56, 1‐(4‐Fluorophenyl)‐3‐(4‐((4‐(piperazin‐1‐yl)quinazolin‐2‐yl)amino)phenyl)urea], the solubility in data set [1] (setting [8]) came to 9.6 µM (≈ 4.39 µg/mL). In data set [2], the logD amounted to 2.2. The hepatocyte CLint in data set [3] worked out at 21 µL/min/1e6 cells. The EC50 in data set [5] turned out to be 180 nM. Besides, the fraction unbound in data set [4] was 0.001. In general, IC50 refers to the midpoint of a concentration-inhibition curve. In the case of `CCN(CC)CCCC(C)Nc1ccnc2cc(Cl)ccc12` (stereo not shown) [chloroquine, reference compound], the values for the IC50 in data set [6] (PfABCI3-HAreg parasites expressing normal level of PfABCI3-HA (-GlcN)) and in data set [6] (PfABCI3-HAreg parasites with reduced pfabci3-ha mRNA (+ 5 mM GlcN)) were 12.6 ± 1.1 nM and 11.9 ± 1.5 nM, respectively. The “fold lower IC50 for +GlcN parasites than -GlcN parasites” value in data set [6] is “equally potent”.
